Assays:
[1] = refractive index (Na D-line) (dimensionless); wn = mass fraction of the nth substance listed; settings: 298.15 K, 100 kPa, Liquid, Standard Abbe refractometry
[2] = mn = molality of the nth substance listed, in mol/kg; settings: 298.15 K, 100 kPa, Liquid, Alternating current cell with electrodes
[3] = wn = mass fraction of the nth substance listed; settings: 298.15 K, 100 kPa, Liquid, Vibrating tube method
[4] = refractive index (Na D-line) (dimensionless); settings: 298.15 K; 100 kPa; Liquid; Standard Abbe refractometry

CCCCn1cc[n+](C)c1.N[C@@H](CCC(=O)O)C(=O)[O-] [1-butyl-3-methylimidazolium (S)-2-amino-4-carboxybutanoate] + O
Settings	electrical conductivity [S/m]	mass density [kg/m3]	refractive index
[1], w1 = 0.05	–	–	1.3448
[1], w1 = 0.103	–	–	1.3584
[1], w1 = 0.152	–	–	1.3724
[1], w1 = 0.2	–	–	1.3838
[1], w1 = 0.299	–	–	1.4025
[1], w1 = 0.377	–	–	1.4179
[1], w1 = 0.492	–	–	1.4473
[1], w1 = 0.576	–	–	1.4684
[2], m1 = 0.061	0.277	–	–
[2], m1 = 0.101	0.364	–	–
[2], m1 = 0.142	0.466	–	–
[2], m1 = 0.196	0.577	–	–
[2], m1 = 0.253	0.676	–	–
[2], m1 = 0.361	0.869	–	–
[2], m1 = 0.439	1.01	–	–
[2], m1 = 0.541	1.13	–	–
[2], m1 = 0.628	1.205	–	–
[2], m1 = 0.715	1.27	–	–
[2], m1 = 0.848	1.37	–	–
[2], m1 = 0.963	1.431	–	–
[3], w1 = 0.111	–	1022.7	–
[3], w1 = 0.183	–	1038.8	–
[3], w1 = 0.273	–	1058.6	–
[3], w1 = 0.353	–	1075.4	–
[3], w1 = 0.42	–	1091	–
[3], w1 = 0.491	–	1105.2	–
[3], w1 = 0.561	–	1122.2	–
[3], w1 = 0.628	–	1136.6	–
[3], w1 = 0.717	–	1153.7	–
[3], w1 = 0.773	–	1167.1	–
[3], w1 = 0.836	–	1181.6	–
[3], w1 = 0.863	–	1185.8	–

CCCCCCCC[n+]1ccn(C)c1.[Cl-] [1-methyl-3-octylimidazolium chloride] + O
[2]
Settings	electrical conductivity [S/m]
m1 = 0.03	0.245
m1 = 0.06	0.425
m1 = 0.124	0.712
m1 = 0.18	0.901
m1 = 0.242	1.03
m1 = 0.284	1.1
m1 = 0.319	1.123
m1 = 0.352	1.18
m1 = 0.389	1.204
m1 = 0.421	1.228
m1 = 0.48	1.26
m1 = 0.51	1.28
m1 = 0.541	1.301

O [water]
Settings	refractive index
[4]	1.3325

From the NIST ThermoML archive (doi:10.1021/acs.jced.5b00948)
